Experimental data from patent US20260042816A1, “TYROSINE KINASE INHIBITOR AND ACTIVIN TYPE 2 RECEPTOR ANTAGONIST COMBINATION THERAPY FOR TREATING PULMONARY ARTERIAL HYPERTENSION (PAH)” (GB002, INC., priority 2022, published 2026).

Key:
[1] = tested on: severe PAH in two animal models; conditions: cited from earlier work
[2] = tested on: SuHx-mediated (SU5416 plus hypoxia) pulmonary hypertension; assay: SuHx (SU5416 plus hypoxia) rat model of PAH; type: in vivo, male Sprague Dawley rats; conditions: for decrease in Fulton's Index (RV hypertrophy measurement) / decrease in PVR Index / decrease in RVSP / decrease in mPAP: normalized to vehicle (1) and normal controls (0), day 49, after 4 weeks of treatment, Seralutinib 15 mg/kg inhalation BID and/or Sotatercept (as RAP-011) 5 mg/kg SC 2x/week; for lung histology (hematoxylin and eosin), pulmonary vessels: representative images, FIG. 2
Experimental: PAH was induced in animal by a administering a single injection SU5416 (20 mg/kg) on day 0, followed by exposure of animals to hypoxia (10% oxygen) for 21 days. SuHx rats were divided in four groups and treated with i) Control: Seralutinib vehicle inhalation+Sotatercept vehicle injection (grey bar) or ii) Seralutinib 15 mg/kg, by inhalation, twice daily+Sotatercept vehicle, subcutaneous injection, twice a week (bar with horizontal pattern) or iii) Sotatercept 5 mg/kg subcutaneous injection, twice a week+Seralutinib vehicle, by inhalation, twice daily (bar with vertical line pattern) or iv) Seralutinib 15 mg/kg, by inhalation, twice daily+Sotatercept 5 mg/kg subcutaneous injection, twice a week (white bar); normoxia animals were used a healthy controls. Bar graph showing individual normalized data point for (A) Right ventricular systolic pressure (RVSP) (FIG. 1A), (B) mean pulmonary artery pressure (mPAP) (FIG. 1B), (C) right ventricular hypertrophy measured by fulton's index (FIG. 1C), and PVR index (FIG. 1D).
SuHx-mediated (SU5416 plus hypoxia) pulmonary hypertension was induced in male Sprague Dawley rats (see “Inhibition of the VEGF receptor 2 combined with chronic hypoxia causes cell death-dependent pulmonary endothelial cell proliferation and severe pulmonary hypertension”, Taraseviciene-Stewart et. al., FASEB J, 2001, 15, 427-438 and “TORREY, a Phase 2 study to evaluate the efficacy and safety of inhaled seralutinib for the treatment of pulmonary arterial hypertension”, Frantz R P, et. al., Pulmonary Circulation 2021; 11(4), 1-7). Semaxanib (SU5416) was administered to rats weighing 200-250 g as a single subcutaneous injection (20 mg/kg). Rats were housed for 3 weeks in 10% oxygen and subsequently re-exposed to normoxia during 4-week treatment period.
Rats underwent treatment for four weeks as described above, with treatment starting on day 22, after disease induction. After 4 weeks of treatment, the following parameters were evaluated: right ventricular systolic pressure (RVSP); Fulton index (weight ratio of right ventricle to the left ventricle and septum); and mean pulmonary arterial pressure (mPAP).
Animals from (Group 2-5) received a single subcutaneous injection of SU5416 (20 mg/kg) on Day 0 and exposed to hypoxia (10% O2) for 21 days followed by 4 weeks of normoxia. Group 1 animals (healthy group) remained in cages exposed to ambient oxygen (normoxic) levels for 49 days. Food and water were given ad libitum.
Treatment with inhaled seralutinib or vehicle, RAP-011 or mIgG2A was as described in Table 2.
Briefly, treatment with the aerosolized Seralutinib or vehicle was administrated for 45 minutes BID for 4 weeks starting day 22 (as outlined in Table 1) at an estimated dose to 15 mg/kg/dose using a Vilnius Aerosol Generator connected to an inhalation tower. The powder concentration was continuously monitored by portable aerosol monitor. Mercer-style cascade impactor was used to perform aerodynamic particle size distribution measurements. RAP-011 or mIgG was administered at 5 mg/kg dose via SC injection twice a week for 4 weeks starting day 22 as described in Table 2.
An echocardiogram monitoring of the progression of the disease was carried out on Day 21 (before treatment) and on surgery day (Day 49) for all groups. The results of the echocardiogram, from Day 21, was used to randomize the animals to ensure that only animals with severe enough disease are selected and that there is a similar disease stage across all groups.
On day 49, after 4 weeks of treatment, end of study procedures was performed: mean pulmonary arterial pressure (mPAP) and right ventricle systolic pressure (RVSP) were measured via an intra-ventricular fluid-filled catheter from AD instruments. Mean pulmonary arterial blood pressure values by using the formula mPAP=Diastolic Pressure+(Systolic Pressure−Diastolic Pressure)/3.

PAH patients = conditions: patients treated with standard-of-care therapies; cited from earlier work

Molecule: COc1ccc(-c2cncc(N[C@@H](C)c3cccc(NC(=O)c4cncc(C)c4)c3)n2)cc1OC [Seralutinib, N-{3-[(1S)-1-{[6-(3,4-dimethoxyphenyl)pyrazin-2-yl]amino}ethyl]phenyl}-5-methylpyridine-3-carboxamide]
- efficacy compared to imatinib ([1]; preclinical study): greater efficacy compared to imatinib
- efficacy of inhaled seralutinib in animal models of severe PAH ([1]; two animal models, improved hemodynamics, reduced NT-proBNP, reverse remodeling): effective treatment of severe PAH
- decrease in Fulton's Index (RV hypertrophy measurement) [2]: 9%
- decrease in PVR Index [2]: 26%
- decrease in RVSP [2]: 13%
- decrease in mPAP [2]: 23%
- lung histology (hematoxylin and eosin), pulmonary vessels [2]: non-occluded pulmonary vessels similar to the healthy group

Molecule: Sotatercept: soluble fusion protein composed of the extracellular domain of the activin receptor type IIA (ActR IIA) linked to the Fc portion of human IgG1 [reference compound]
- clinical effect in PAH patients (PAH patients): beneficial effects
- decrease in Fulton's Index (RV hypertrophy measurement) [2]: 15%
- decrease in PVR Index [2]: 25%
- decrease in RVSP [2]: 31%
- decrease in mPAP [2]: 28%
- lung histology (hematoxylin and eosin), pulmonary vessels [2]: non-occluded pulmonary vessels similar to the healthy group
